Test system: HIV-1 LAI
Experiment: microbe, parasite or virus in culture
Details: for Combination Indices at % HIV Inhibition (Confidence Interval) 50% / Combination Indices at % HIV Inhibition (Confidence Interval) 75% / Combination Indices at % HIV Inhibition (Confidence Interval) 90%: 95% confidence interval in parentheses; for Overall Result (combined anti-HIV effect): all ratios, MT-2 cells, HIV-1 LAI; for EC50: Human immunodeficiency virus 1, MT2, 120 h
Description: Virus and cell lines. The T-cell lines, MT-2 and PM-1 were obtained through the AIDS Research and Reference Reagent Program, NIAID, and were contributed by Dr. D. Richman and Dr. R. Gallo, respectively. Both cell lines were cultured in RPMI 1640 medium supplemented with 10% fetal bovine serum, 2 mM L-glutamine and sub-cultured twice a week. The LAI strain of HIV-1 was obtained from the Fred Hutchinson Cancer Research Center, and the Bal strain was from NIH. Both virus stocks were amplified and titered in MT-2 cells (LAI) and PM-1 cells (Bal) using a virus infectivity assay.
Drug Susceptibility and Cytotoxicity Assays. For drug susceptibility assays, MT-2 cells were infected with HIV-1 LAI (or PM-1 cells with HIV-1 Bal) at an MOI of 0.005, and seeded into 96-well microtiter plates (0.1×10^6 cells/ml) containing serial dilutions of test compounds. […] Each drug ratio consisted of an array of 3-fold serial dilutions, and was performed in quadruplicate. The plates were incubated at 37° C./5% CO2. The MT-2 cells infected with HIV-1 LAI were incubated for 5 days. On day-five post-infection, 20 μl from each well was harvested and quantitated by a reverse transcriptase (RT) assay, or in samples involving non-nucleoside RT inhibitors, an MTS assay. The PM-1 cells infected with HIV-1 Bal and used for studying the combinations with CCR5 inhibitors were incubated for six days. On day-six post-infection, 20 μl from each well was harvested, 20- and 50-fold diluted and quantitated by p24 assay. Cytotoxicity assays were performed using uninfected cells, exposed to the same drug combinations, and incubated for six days. Cell viability was determined by an MTS assay. The CC50 values were calculated by using the exponential form of the median effect equation as mentioned below for calculation of EC50.
Analysis of Drug Combination Effects. For determination of CI values, drugs were diluted in a fixed ratio and multiple ratios were analyzed. The drug serial dilutions spanned a range of concentrations near the EC50 value of each compound, so that equivalent antiviral activities could be compared. Concentration-response curves were estimated for each individual drug and every combination using the median-effect equation. The equation was fit using a nonlinear regression routine (Proc Nlin) in PC SAS version 8.01 (SAS Institute Inc., SAS Version 8.01, Cary, N.C.: SAS Institute Inc., 1990).
In this equation, Fa stands for “fraction affected,” and represents the fraction of the viral load that has been inactivated. […] ED50 is drug concentration that is expected to reduce the amount of virus by 50%, and m is a parameter that reflects the slope of the concentration-response curve.
To assess antiviral effects of different drug combination treatments, combination indices (CIs) were calculated according to Chou and Rideout. The combination index was computed as CI=[D]1/[Dm]1+[D]2/[Dm]2
In this equation [Dm]1 and [Dm]2 are the concentrations of drugs that would individually produce a specific level of effect, while [D]1 and [D]2 are the concentrations of drugs in combination that would produce the same level of effect.
Theoretically, additivity is implied if the CI is equal to one, synergy if the CI is less than one, and antagonism if the CI is greater than one. […] At best, we can construct a range that contains the likely values for the CI, given the noise in the data. In this report, these ranges are reported in parentheses next to each point estimate of the CI. […] If the range fell entirely above 1.0, we would infer antagonistic behavior. If the range were to include 1.0, we would infer additivity.
In carrying out the combination experiments below, the EC50 for Compound 1 and each comparator compound was determined during the course of each study, and used in the subsequent data analysis.

[1] = Compound 1 + named drug, EC50 ratio 1:1 (Compound 1:comparator)
[2] = Compound 1 + named drug, EC50 ratio 1:2.5 (Compound 1:comparator)
[3] = Compound 1 + named drug, EC50 ratio 2.5:1 (Compound 1:comparator)

SMILES | EC50 [nM] | Combination Indices at % HIV Inhibition (Confidence Interval) 50% [1] | Combination Indices at % HIV Inhibition (Confidence Interval) 75% [1] | Combination Indices at % HIV Inhibition (Confidence Interval) 90% [1] | Combination Indices at % HIV Inhibition (Confidence Interval) 50% [2] | Combination Indices at % HIV Inhibition (Confidence Interval) 75% [2] | Combination Indices at % HIV Inhibition (Confidence Interval) 90% [2] | Combination Indices at % HIV Inhibition (Confidence Interval) 50% [3] | Combination Indices at % HIV Inhibition (Confidence Interval) 75% [3] | Combination Indices at % HIV Inhibition (Confidence Interval) 90% [3] | Overall Result (combined anti-HIV effect) (Compound 1 + named drug) | Overall Result (combined anti-HIV effect) (Compound 1 + named drug, listed as delavirdine) | Overall Result (combined anti-HIV effect) (Compound 1 + named drug, listed as efavirenz) | Overall Result (combined anti-HIV effect) (Compound 1 + named drug, listed as nevapiradine) | Combined effect at 90% inhibition level (Compound 1 + named drug) | Combined effect at the 50 and 75% inhibition levels (Compound 1 + named drug)
CC(C)Nc1cccnc1N1CCN(C(=O)c2cc3cc(NS(C)(=O)=O)ccc3[nH]2)CC1 [Delavirdine, delavirdine] | 25 | 0.90 (0.75, 1.06) | 0.49 (0.38, 0.61) | 0.28 (0.18, 0.39) | 0.57 (0.42, 0.71) | 0.55 (0.36, 0.75) | 0.57 (0.26, 0.89) | 0.64 (0.49, 0.78) | 0.46 (0.31, 0.60) | 0.34 (0.17, 0.50) | Synergistic | synergistic |  |  |  | 
Cc1ccnc2c1NC(=O)c1cccnc1N2C1CC1 [Nevirapine, nevirapine] | 107 | 0.19 (0.15, 0.23) | 0.22 (0.16, 6.28) | 0.26 (0.15, 0.38) | 0.48 (0.35, 0.62) | 0.66 (0.40, 0.92) | 0.92 (0.35, 1.49) | 0.58 (0.48, 0.67) | 0.99 (0.76, 1.22) | 1.71 (1.09, 2.33) | Additive- |  |  | additive-synergystic |  | 
COC(=O)N[C@H](C(=O)N[C@@H](Cc1ccccc1)[C@@H](O)CN(Cc1ccc(-c2ccccn2)cc1)NC(=O)[C@@H](NC(=O)OC)C(C)(C)C)C(C)(C)C [Atazanavir, atazanavir] | 0.7 | 0.53 (0.46, 0.60) |  | 0.90 (0.64, 1.17) |  | 0.49 (0.29, 0.69) | 1.17 (0.38, 1.95) | 0.34 (0.26, 0.42) | 0.56 (0.38, 0.74) | 0.97 (0.46, 1.48) | Additive- |  |  |  |  | 
CC(C)CN(C[C@@H](O)[C@H](Cc1ccccc1)NC(=O)O[C@H]1CCOC1)S(=O)(=O)c1ccc(N)cc1 [Amprenavir, amprenavir] | 11 | 0.14 (0.11, 0.17) | 0.35 (0.26, 0.45) | 0.87 (0.46, 1.28) | 0.13 (0.09, 0.17) | 0.27 (0.17, 0.38) | 0.58 (0.19, 0.97) | 0.46 (0.32, 0.60) | 0.79 (0.46, 1.11) | 1.33 (0.42, 2.25) | Additive- |  |  |  |  | 
c1cc(CN2CCCNCCNCCCNCC2)ccc1CN1CCCNCCNCCCNCC1 [AMD-3100] | 5 | 0.44 (0.29, 0.60) | 0.62 (0.31, 0.92) | 0.98 (0.21, 1.76) | 0.56 (0.42, 0.70) | 0.54 (0.35, 0.73) | 0.66 (0.29, 1.02) | 0.52 (0.36, 0.68) | 0.61 (0.35, 0.88) | 0.77 (0.24, 1.31) |  |  |  |  | tendency to additivity | strongly synergistic
COc1cnc(-n2cnc(C)n2)c2[nH]cc(C(=O)C(=O)N3CCN(C(=O)c4ccccc4)CC3)c12 [Compound 1, 1-Benzoyl-4-[2-[4-methoxy-7-(3-methyl-1H-1,2,4-triazol-1-yl)-1H-pyrrolo[2,3-c]pyridin-3-yl]-1,2-dioxoethyl]-piperazine] | 0.1 to 0.3 |  |  |  |  |  |  |  |  |  |  |  |  |  |  | 

Further lines, with some results ahead:

EC50 [nM] | SMILES | Combination Indices at % HIV Inhibition (Confidence Interval) 50% [1] | Combination Indices at % HIV Inhibition (Confidence Interval) 75% [1] | Combination Indices at % HIV Inhibition (Confidence Interval) 90% [1] | Combination Indices at % HIV Inhibition (Confidence Interval) 50% [2] | Combination Indices at % HIV Inhibition (Confidence Interval) 75% [2] | Combination Indices at % HIV Inhibition (Confidence Interval) 90% [2] | Combination Indices at % HIV Inhibition (Confidence Interval) 50% [3] | Combination Indices at % HIV Inhibition (Confidence Interval) 75% [3] | Combination Indices at % HIV Inhibition (Confidence Interval) 90% [3] | Overall Result (combined anti-HIV effect) (Compound 1 + named drug) | Overall Result (combined anti-HIV effect) (Compound 1 + named drug, listed as delavirdine) | Overall Result (combined anti-HIV effect) (Compound 1 + named drug, listed as efavirenz) | Overall Result (combined anti-HIV effect) (Compound 1 + named drug, listed as nevapiradine) | Combined effect at 90% inhibition level (Compound 1 + named drug) | Combined effect at the 50 and 75% inhibition levels (Compound 1 + named drug)
1 | O=C1Nc2ccc(Cl)cc2[C@@](C#CC2CC2)(C(F)(F)F)O1 [Efavirenz, efavirenz] | 0.70 (0.50, 0.89) |  | 0.32 (0.13, 0.50) | 0.47 (0.28, 0.65) | 0.46 (0.21, 0.70) | 0.45 (0.06, 0.83) | 0.52 (0.36, 0.69) | 0.39 (0.21, 0.57) | 0.30 (0.08, 0.51) | Synergistic |  | synergistic |  |  | 
34 | Nc1ccn([C@H]2CC[C@@H](CO)O2)c(=O)n1 [Zalcitabine, zalcitabine] | 0.58 (0.46, 0.69) | 0.61 (0.43, 0.78) | 0.69 (0.39, 1.00) |  | 0.56 (0.44, 0.68) | 0.65 (0.43, 0.86) | 0.24 (0.22, 0.26) | 0.18 (0.16, 0.20) | 0.14 (0.12, 0.17) | Synergistic |  |  |  |  | 
25 | Nc1nc(=O)n([C@@H]2CS[C@H](CO)O2)cc1F [Emtricitabine, emtricitabine] | 0.42 (0.35, 0.50) | 0.49 (0.37, 0.61) |  | 0.19 (0.15, 0.22) | 0.35 (0.26, 0.44) | 0.67 (0.36, 0.99) | 0.11 (0.09, 0.12) | 0.26 (0.21, 0.31) | 0.67 (0.44, 0.89) | Synergistic |  |  |  |  | 
4 | Cc1cccc(C)c1OCC(=O)N[C@@H](Cc1ccccc1)[C@@H](O)C[C@H](Cc1ccccc1)NC(=O)[C@H](C(C)C)N1CCCNC1=O [Lopinavir, lopinavir] | 0.47 (0.38, 0.56) | 0.66 (0.48, 0.84) |  | 0.89 (0.73, 1.05) | 0.90 (0.67, 1.13) | 1.00 (0.60, 1.40) | 0.29 (0.25, 0.33) | 0.37 (0.30, 0.44) | 0.51 (0.37, 0.65) | Additive- |  |  |  |  | 
